Active and inactive are the calls of the source. How the calls were made is not given here.

For the experiment, the target named is Serine/threonine-protein kinase mTOR (Homo sapiens) (UniProt P42345). Nature of the experiment: mTOR FRB domain ligand binding – biophysical, NMR (AID 1648). To be noted: NMR binding to FRB domain, chemical shift.
Chain of Serine/threonine-protein kinase mTOR (Homo sapiens) (P42345 2015-2114): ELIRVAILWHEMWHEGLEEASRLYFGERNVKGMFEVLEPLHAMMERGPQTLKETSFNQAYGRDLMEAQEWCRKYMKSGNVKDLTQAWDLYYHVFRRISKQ
On to `NCCC(=O)N[C@@H](Cc1cnc[nH]1)C(=O)O`, for which the Kd was > 4 mM (inactive).

For the compound `O=C(O)CN1CCN(C2CCCC2)CC1`, the Kd is > 4 mM (inactive).

As to `COC(=O)c1cccc(C(F)(F)F)c1`, the Kd is > 4 mM (inactive).

With `COc1cccc(S(=O)(=O)Nc2cccnc2)c1`, the Kd is > 4 mM (inactive).

With `O=C(O)c1cc(F)cc2c1OCOC2`, the Kd was > 4 mM (inactive).

Consider `C=C(C)[C@@H]1[C@H]2OC(=O)[C@@H]1[C@]1(O)C[C@H]3O[C@]34C(=O)O[C@H]2[C@]14C`, for which the Kd was > 4 mM (inactive).

On to `c1ccc(-c2nsc(N3CCCNCC3)n2)cc1`, for which the Kd was > 4 mM (inactive).

Regarding `NCc1csc(-c2ccccc2)n1`, the Kd is > 4 mM (inactive).

Take `Nc1ccc2c(c1)C(=O)OC2`: the Kd is > 4 mM (inactive).

For the compound `Cc1cc(C)nc(/N=C(/N)N2CCOCC2)n1`, the Kd was > 4 mM (inactive).

Take `COc1ccc(NC(=O)c2ccc[n+]([O-])c2)cc1`: the Kd is > 4 mM (inactive).

As for `NC(=O)c1ccsc1NC(=O)c1ccco1`, the Kd was > 4 mM (inactive).

As to `Cc1ccc(Nc2nc(N)nc(CC#N)n2)cc1`, the Kd is > 4 mM (inactive).

Take `Cc1cn2c(-c3cccnc3)nnc2s1`: the Kd is > 4 mM (inactive).

For the compound `NC(=O)CCS(=O)(=O)CCN1CCOCC1`, the Kd was > 4 mM (inactive).

Consider `CC[C@H](/C=C/C(C)C1CCC2C3CCC4=CC(=O)CC[C@]4(C)C3CC[C@]12C)C(C)C` (stereo partly specified), for which the Kd was > 4 mM (inactive).

For `COc1cc(C/C=C/c2ccccc2)c(OC)cc1O`, the Kd was > 4 mM (inactive).

For `COC1=C(OC)C(=O)C(C/C=C(\C)CC/C=C(\C)CC/C=C(\C)CC/C=C(/C)CC/C=C(\C)CC/C=C(\C)CC/C=C(\C)CC/C=C(\C)CC/C=C(\C)CCC=C(C)C)=C(C)C1=O`, the Kd was > 4 mM (inactive).

Consider `c1csc(-c2nnc3ccccn23)c1`, for which the Kd is > 4 mM (inactive).

As for `O=C(O)c1ccc(N2CCCCC2)cc1`, the Kd was > 4 mM (inactive).

For the compound `O=C1CSC(c2ccc3c(c2)OCO3)N1` (stereo unspecified), the Kd is > 4 mM (inactive).

As for `CC(=O)Nc1ccc(S(=O)(=O)NC(N)=O)cc1`, the Kd is > 4 mM (inactive).

Turning to `CC(C)=CC(=O)Nc1ccc(S(N)(=O)=O)cc1`, the Kd was > 4 mM (inactive).

Regarding `COc1c2c(cc3occ(-c4ccc5c(c4)OCO5)c(=O)c13)OC(C)(C)C=C2`, the Kd is > 4 mM (inactive).

Consider `COc1ccccc1-c1n[nH]c(=O)o1`, for which the Kd is > 4 mM (inactive).

`COc1ccc(Cl)c(S(=O)(=O)N2CCCC2)c1`: the Kd is > 4 mM (inactive).

Turning to `CCCc1nc2ccccc2c2nc(N)nn12`, the Kd is > 4 mM (inactive).

In the case of `O=C(O)c1onc2ccccc12`, the Kd was > 4 mM (inactive).

Turning to `C=CC(C1=CC(=O)C(OC)=CC1=O)c1ccccc1` (stereo unspecified), the Kd is > 4 mM (inactive).

On to `O=[N+]([O-])c1cccc(-c2nnco2)c1`, for which the Kd was > 4 mM (inactive).

With `O=c1[nH]c(NCCO)nnc1Cc1ccccc1`, the Kd was > 4 mM (inactive).

As for `Cc1nc2ccccc2c(=O)n1CCCn1ccnc1`, the Kd is > 4 mM (inactive).

In the case of `O=C(Nn1c(=S)[nH]c2ccccc2c1=O)c1ccncc1`, the Kd was > 4 mM (inactive).

Turning to `Cc1nc(-c2cccc(-c3noc(C)n3)c2)no1`, the Kd was > 4 mM (inactive).

Take `Cc1cc(C)n2nc(C(=O)NCc3ccco3)nc2n1`: the Kd is > 4 mM (inactive).

Take `CCN1CCN(c2ncnc3c2nnn3C)CC1`: the Kd is > 4 mM (inactive).

With `Cc1cc(=O)[nH]c(NCc2cccnc2)n1`, the Kd was > 4 mM (inactive).

As for `NC(=O)c1ccc(-c2ccccn2)s1`, the Kd is > 4 mM (inactive).

With `Cc1nnc2ccc(N3CCCC3)nn12`, the Kd was > 4 mM (inactive).

For the compound `O=c1c2c(nc3nc(COc4ccccc4)[nH]n13)CCC2`, the Kd is > 4 mM (inactive).

As to `COC(=O)CC1SC(=O)NC1=O` (stereo unspecified), the Kd was > 4 mM (inactive).

`COc1cc(O)c2c(c1)C(=O)c1cc(C)cc(O)c1C2=O`: the Kd is > 4 mM (inactive).

Regarding `Cc1nc2ccccc2c2c1C(=O)N(C)C2=O`, the Kd was > 4 mM (inactive).

As to `CN(C)C(=S)Nc1nc2ccccc2s1`, the Kd is > 4 mM (inactive).

`CNC(=O)C1=NCCCc2cc(OC)c(OC)cc21`: the Kd was > 4 mM (inactive).

On to `Cc1oc(-c2ccccc2)nc1CCO`, for which the Kd is > 4 mM (inactive).

Consider `O=S(=O)(CCN1CCCC1)c1ccccc1`, for which the Kd was > 4 mM (inactive).

With `Nc1ccccc1-c1nc2ccccc2[nH]1`, the Kd is > 4 mM (inactive).

Regarding `COC(=O)[C@]1(C)CC[C@]2(C)CC[C@]3(C)C4=CCc5c(cc(O)c(O)c5C)[C@]4(C)CC[C@@]3(C)C2C1` (stereo partly specified), the Kd was > 4 mM (inactive).

With `CC(=O)O[C@H]1CCC2(C)C3=C(CCC2C1(C)C)[C@]1(C)CCC(C(C)CCC=C(C)C)[C@@]1(C)CC3` (stereo partly specified), the Kd was > 4 mM (inactive).

As to `OC[C@H]1O[C@@](CO)(O[C@@H]2O[C@H](CO)[C@@H](O)[C@H](O)[C@H]2O)[C@@H](O[C@@H]2O[C@H](CO)[C@@H](O)[C@H](O)[C@H]2O)[C@@H]1O`, the Kd is > 4 mM (inactive).

With `c1ccc(SCc2nc(-c3ccccn3)no2)cc1`, the Kd is > 4 mM (inactive).

Turning to `NC(=O)Cn1cnc(-c2ccc(F)cc2)c1`, the Kd was > 4 mM (inactive).

Turning to `O=C(Nc1ccccc1N1CCCC1)c1cccnc1`, the Kd is > 4 mM (inactive).

In the case of `S=c1[nH]cnc2sccc12`, the Kd was > 4 mM (inactive).

As to `O=C(O)CCC(=O)NCc1cccnc1`, the Kd is > 4 mM (inactive).

As to `COC(=O)C(O)c1ccccc1` (stereo unspecified), the Kd is > 4 mM (inactive).

Turning to `Cc1occc1C(=O)Nc1nccs1`, the Kd was > 4 mM (inactive).

On to `O=C(Nn1cnnc1)c1csc2ccccc12`, for which the Kd was > 4 mM (inactive).

`Cc1cc(N)no1`: the Kd was > 4 mM (inactive).

With `O=C(O)CCCc1nc2ccccc2s1`, the Kd was > 4 mM (inactive).

`CCS(=O)(=O)N1CCN(c2ccccc2F)CC1`: the Kd is > 4 mM (inactive).

With `CCOC(=O)CNC(=O)CSc1nnc(C)c(=O)[nH]1`, the Kd was > 4 mM (inactive).

As to `Nc1c(Nc2ccccc2)c2ccccc2oc1=O`, the Kd is > 4 mM (inactive).

In the case of `Nn1c(CN2CCCCC2)nc2ccccc2c1=O`, the Kd was > 4 mM (inactive).

In the case of `Cc1cc(C)n(C/C=C/Cn2nc(C)cc2C)n1`, the Kd was > 4 mM (inactive).

Take `CC(=O)N1CCN(C2CCSC2)CC1` (stereo unspecified): the Kd is > 4 mM (inactive).

For the compound `CCCc1cc(=O)[nH]c2nnc(SCC(C)=O)n12`, the Kd is > 4 mM (inactive).

`Cc1sc2nc(NCCO)[nH]c(=O)c2c1C`: the Kd is > 4 mM (inactive).

Turning to `C=CCN1CC[C@]23c4c5ccc(O)c4OC2C(=O)CC[C@@]3(O)[C@H]1C5` (stereo partly specified), the Kd is > 4 mM (inactive).

Take `C[C@@H]1CC[C@@]23CCC4(C)[C@@](C=CC5[C@@]6(C)CC[C@H](O)C(C)(C)C6CC[C@]54C)(OC2=O)C3[C@H]1C` (stereo partly specified): the Kd is > 4 mM (inactive).

Turning to `CC(C)(C)NC(=O)N1CCC(C(N)=O)CC1`, the Kd was > 4 mM (inactive).

Consider `COC(=O)[C@@H]1OC(=O)C2OC23[C@@]1(C)CCC1[C@]2(C)C(C[C@H](O)[C@]13C)C(C)(C)[C@H](OC(C)=O)C[C@@H]2OC(C)=O` (stereo partly specified), for which the Kd is > 4 mM (inactive).

Regarding `Cc1nnsc1C(=O)Nc1ccccn1`, the Kd is > 4 mM (inactive).

Consider `O=C(O)C1CCCCN1Cc1ccccc1` (stereo unspecified), for which the Kd was > 4 mM (inactive).

Regarding `OCC1Cc2ccccc2CN1` (stereo unspecified), the Kd was > 4 mM (inactive).

Turning to `CC(C)=CC(=O)Nc1ccc2c(c1)OCO2`, the Kd was > 4 mM (inactive).

As for `NC(=O)CSc1nnc(-c2cccnc2)o1`, the Kd was > 4 mM (inactive).

With `CN(C(N)=O)C1(C)CCS(=O)(=O)C1` (stereo unspecified), the Kd was > 4 mM (inactive).

Take `c1ccc(CCN2CCN(CCc3ccccn3)CC2)nc1`: the Kd was > 4 mM (inactive).

Regarding `O=C1CCCC2C3CC(CN12)[C@@H]1CCCCN1C3` (stereo partly specified), the Kd was > 4 mM (inactive).

On to `CC(=O)CC1(O)C(=O)Nc2ccc(Br)cc21` (stereo unspecified), for which the Kd is > 4 mM (inactive).

Take `CC(=O)OC1CCC2(C)C(=CC=C3C2CCC2(C)C3CCC2C(C)/C=C/C(C)C(C)C)C1(C)C` (stereo unspecified): the Kd is > 4 mM (inactive).

In the case of `CC(=O)Oc1ccc(/C=C/c2cc(OC(C)=O)cc(OC(C)=O)c2)cc1`, the Kd was > 4 mM (inactive).

On to `CC(=O)c1sc(NC(=O)C=C(C)C)nc1C`, for which the Kd is > 4 mM (inactive).

On to `Nc1ncnc(NCc2cccnc2)c1[N+](=O)[O-]`, for which the Kd was > 4 mM (inactive).

On to `CC(C)n1nnc2cc(C(=O)O)ccc21`, for which the Kd was > 4 mM (inactive).

Consider `CSc1ccccc1NC(=O)c1cccnc1`, for which the Kd is > 4 mM (inactive).

As for `Cc1occc1C(=O)NCc1ccccc1F`, the Kd is > 4 mM (inactive).

Regarding `Clc1ccc(-c2noc(CN3CCCC3)n2)cc1`, the Kd was > 4 mM (inactive).

Consider `N=Nc1c(O)[nH]c2ccccc12`, for which the Kd was > 4 mM (inactive).

Turning to `COc1ccc(C(O)c2nccn2C)cc1` (stereo unspecified), the Kd is > 4 mM (inactive).

Turning to `O=C(CCc1ccc(O)cc1)c1c(O)cc(O)cc1O`, the Kd is > 4 mM (inactive).

Consider `O=S1(=O)CCC(NC(=S)Nc2ccc(O)cc2)C1` (stereo unspecified), for which the Kd is > 4 mM (inactive).

Turning to `Cc1ccc(SCc2nc(-c3cccnc3)no2)cc1`, the Kd is > 4 mM (inactive).

On to `OCc1cccc2c1OCO2`, for which the Kd is > 4 mM (inactive).

Regarding `C/C=C(\C)c1nnc(NC(=O)C(C)C)s1`, the Kd was > 4 mM (inactive).

For the compound `O=C(NCC1CCCCC1)c1ccco1`, the Kd was > 4 mM (inactive).

Consider `Nc1ccc(-c2cnco2)cc1`, for which the Kd was > 4 mM (inactive).

On to `O=C(c1ncc[nH]1)c1ccccc1C(=O)N1CCOCC1`, for which the Kd was > 4 mM (inactive).

For the compound `CC1=NNC(=O)C1CCc1ccncc1` (stereo unspecified), the Kd was > 4 mM (inactive).

A word on the Kd: it is the concentration at which binding is half-saturated.

The values above are taken from PubChem BioAssay AID1648 (Sanford-Burnham Center for Chemical Genomics, 2009).
